Assay results as given in PubChem BioAssay AID248 (DTP/NCI, 2004).
Where “and” joins values, the source holds several entries; their conditions need not be identical. Equal entries are not always repeated. Toxic doses and inconclusive results are not listed. Rule as the data show it: active = T/C of 150% or more; inactive = T/C below 125%.

Test system: L1210 leukemia ip in BDF1 mice, survival T/C
Test: NCI In Vivo Anticancer Drug Screen. Data for tumor model L1210 Leukemia (intraperitoneal) in B6D2F1 (BDF1) mice
Conditions: endpoint: mean survival time, higher = longer survival
Outline: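 Value reflects the ratio of survival in compound-treated mice to survival in vehicle-treated controls, with both groups carrying the same transplanted tumor.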

[1] = dose: 100.0 mg/kg/injection, schedule: Q04DX003 (ip), vehicle: Klucel (hydroxypropylcellulose) (HPC)
[2] = dose: 200.0 mg/kg/injection, schedule: Q04DX003 (ip), vehicle: Klucel (hydroxypropylcellulose) (HPC)
[3] = dose: 400.0 mg/kg/injection, schedule: Q04DX003 (ip), vehicle: Klucel (hydroxypropylcellulose) (HPC)
[4] = dose: 12.5 mg/kg/injection, schedule: Q04DX003 (ip), vehicle: Klucel (hydroxypropylcellulose) (HPC)
[5] = dose: 25.0 mg/kg/injection, schedule: Q04DX003 (ip), vehicle: Klucel (hydroxypropylcellulose) (HPC)
[6] = dose: 50.0 mg/kg/injection, schedule: Q04DX003 (ip), vehicle: Klucel (hydroxypropylcellulose) (HPC)
[7] = dose: 25.0 mg/kg/injection, schedule: Q01DX009 (ip), vehicle: Klucel (hydroxypropylcellulose) (HPC)
[8] = dose: 50.0 mg/kg/injection, schedule: Q01DX009 (ip), vehicle: Klucel (hydroxypropylcellulose) (HPC)
[9] = dose: 100.0 mg/kg/injection, schedule: Q01DX009 (ip), vehicle: Klucel (hydroxypropylcellulose) (HPC)
[10] = dose: 100.0 mg/kg/injection, schedule: Q01DX001 (ip), vehicle: saline
[11] = dose: 200.0 mg/kg/injection, schedule: Q01DX001 (ip), vehicle: saline
[12] = dose: 400.0 mg/kg/injection, schedule: Q01DX001 (ip), vehicle: saline

Measured: T/C

CC[C@@]1(O)c2cc3n(c(=O)c2CO[C@H]1O)Cc1cc2ccccc2nc1-3
active: dose: 16.0 mg/kg/injection, schedule: Q01DX015 (ip), vehicle: saline 150 % of control
inactive: dose: 0.5 mg/kg/injection, schedule: Q01DX Z (ip), vehicle: saline 96 % of control | dose: 1.0 mg/kg/injection, schedule: Q01DX Z (ip), vehicle: saline 94 % of control | dose: 2.0 mg/kg/injection, schedule: Q01DX Z (ip), vehicle: saline 97 % of control | dose: 4.0 mg/kg/injection, schedule: Q01DX015 (ip), vehicle: saline 104 % of control | dose: 4.0 mg/kg/injection, schedule: Q01DX Z (ip), vehicle: saline 97 % of control | dose: 8.0 mg/kg/injection, schedule: Q01DX007 (ip), vehicle: other 108 % of control | dose: 8.0 mg/kg/injection, schedule: Q01DX012 (ip), vehicle: saline 95 % of control | dose: 8.0 mg/kg/injection, schedule: Q01DX015 (ip), vehicle: saline 106 % of control | dose: 16.0 mg/kg/injection, schedule: Q01DX007 (ip), vehicle: other 112 % of control | dose: 16.0 mg/kg/injection, schedule: Q01DX012 (ip), vehicle: saline 108 % of control

O=C(C1=Cc2ccccc2OC1)N1CCN(c2ccccc2)CC1
inactive: dose: 100.0 mg/kg/injection, schedule: Q04DX003 (ip), vehicle: gum acacia 103 % of control | dose: 200.0 mg/kg/injection, schedule: Q04DX003 (ip), vehicle: gum acacia 95 % of control | dose: 400.0 mg/kg/injection, schedule: Q04DX003 (ip), vehicle: gum acacia 101 % of control

O=C(NC(Cc1cn(Cc2ccccc2)cn1)C(=O)O)OCc1ccccc1 (stereo not given)
inactive: [1] 104 % of control | [2] 104 % of control | [3] 97 % of control

C=CCNC(=S)Nc1cccc2ccccc12
inactive: [4] 105 % of control | [5] 96 % of control | [6] 105 % of control

CC12CCC(Cl)CC1=CCC1C2CCC2(C)c3nc(N)ncc3CC12 (stereo not given)
inactive: dose: 100.0 mg/kg/injection, schedule: Q04DX003 (sc), vehicle: gum acacia 101 % of control | dose: 200.0 mg/kg/injection, schedule: Q04DX003 (sc), vehicle: gum acacia 92 % of control | dose: 400.0 mg/kg/injection, schedule: Q04DX003 (sc), vehicle: gum acacia 103 % of control

O=CNn1cn[nH]c1=S
inactive: dose: 100.0 mg/kg/injection, schedule: Q01DX001 (ip), vehicle: carboxymethylcellulose (CMC) 95 % of control | dose: 200.0 mg/kg/injection, schedule: Q01DX001 (ip), vehicle: carboxymethylcellulose (CMC) 98 % of control | dose: 400.0 mg/kg/injection, schedule: Q01DX001 (ip), vehicle: carboxymethylcellulose (CMC) 95 % of control

CCCCCCCCCCCCN(CCC(=O)O)S(=O)(=O)O
inactive: [4] 101 % of control | [7] 94 % of control | [5] 98 % of control | [8] 96 % of control | [6] 102 % of control | [9] 94 % of control | [1] 97 % of control

N#Cc1[nH]cnc1[N+]#N
inactive: dose: 3.0 mg/kg/injection, schedule: Q01DX009 (ip), vehicle: saline with Tween-80 103 % of control | dose: 3.0 mg/kg/injection, schedule: Q04DX003 (ip), vehicle: other 108 % of control | dose: 6.0 mg/kg/injection, schedule: Q01DX009 (ip), vehicle: saline with Tween-80 105 % of control | dose: 6.0 mg/kg/injection, schedule: Q04DX003 (ip), vehicle: other 103 % of control | dose: 12.0 mg/kg/injection, schedule: Q01DX009 (ip), vehicle: saline with Tween-80 91 % of control | dose: 12.0 mg/kg/injection, schedule: Q04DX003 (ip), vehicle: other 108 % of control | dose: 12.5 mg/kg/injection, schedule: Q01DX001 (ip), vehicle: other 94 % of control

C=C(Br)CNC(=O)C(C)C
inactive: dose: 5.0 mg/kg/injection, schedule: Q04DX003 (ip), vehicle: saline with Tween-80 102 % of control | dose: 10.0 mg/kg/injection, schedule: Q04DX003 (ip), vehicle: saline with Tween-80 103 % of control | dose: 20.0 mg/kg/injection, schedule: Q04DX003 (ip), vehicle: saline with Tween-80 102 % of control

C#CC(=O)OCC#CCOC(=O)C#C
inactive: dose: 1.56 mg/kg/injection, schedule: Q01DX009 (ip), vehicle: saline with Tween-80 111 % of control | dose: 3.12 mg/kg/injection, schedule: Q01DX009 (ip), vehicle: saline with Tween-80 101 % of control | dose: 6.25 mg/kg/injection, schedule: Q01DX009 (ip), vehicle: saline with Tween-80 87 % of control and 90 % of control

CC(C)(CO)NCC(C)(C)[N+](=O)[O-]
inactive: [1] 103 % of control | [2] 102 % of control | [3] 112 % of control

CCCCC(=O)c1ccc(OC)cc1
inactive: [9] 100 % of control | [1] 96 % of control | dose: 200.0 mg/kg/injection, schedule: Q01DX009 (ip), vehicle: Klucel (hydroxypropylcellulose) (HPC) 105 % of control | [2] 102 % of control | dose: 400.0 mg/kg/injection, schedule: Q01DX009 (ip), vehicle: Klucel (hydroxypropylcellulose) (HPC) 102 % of control | [3] 93 % of control

C=CCc1cccc(C2N(Cc3ccccc3OC)CCCN2Cc2ccccc2OC)c1O
inactive: dose: 50.0 mg/kg/injection, schedule: Q01DX001 (ip), vehicle: saline 103 % of control | [10] 100 % of control | [11] 97 % of control | [12] 97 % of control

COc1cccc(O)c1/C=C/[N+](=O)[O-]
inactive: [8] 104 % of control | [9] 102 % of control

O=C(O)[C@@H]1C[C@@H](O)CN1
inactive: [10] 87 % of control | [11] 100 % of control | [12] 94 % of control

C=C(Cl)CSc1ccccc1
inactive: [10] 103 % of control | [11] 103 % of control | [12] 105 % of control

O=C(O)CNC(=O)c1ccc(NC(=S)Nc2ccccc2)cc1
inactive: [7] 90 % of control | [8] 88 % of control | [9] 108 % of control and 91 % of control

O=C(O)C1C(C(=O)O)C2(Cl)C(Cl)=C(Cl)C1(Cl)C2(Cl)Cl.[Co] (stereo not given)
inactive: dose: 12.5 mg/kg/injection, schedule: Q01DX009 (ip), vehicle: saline 116 % of control | dose: 25.0 mg/kg/injection, schedule: Q01DX009 (ip), vehicle: saline sonified 112 % of control | dose: 25.0 mg/kg/injection, schedule: Q01DX009 (ip), vehicle: saline 110 % of control | dose: 33.0 mg/kg/injection, schedule: Q01DX009 (ip), vehicle: saline sonified 108 % of control | dose: 50.0 mg/kg/injection, schedule: Q01DX001 (ip), vehicle: Klucel (hydroxypropylcellulose) (HPC) 98 % of control | dose: 50.0 mg/kg/injection, schedule: Q01DX009 (ip), vehicle: saline 115 % of control | dose: 75.0 mg/kg/injection, schedule: Q01DX009 (ip), vehicle: saline sonified 112 % of control | dose: 100.0 mg/kg/injection, schedule: Q01DX001 (ip), vehicle: Klucel (hydroxypropylcellulose) (HPC) 110 % of control | dose: 100.0 mg/kg/injection, schedule: Q01DX009 (ip), vehicle: saline 124 % of control | dose: 200.0 mg/kg/injection, schedule: Q01DX001 (ip), vehicle: Klucel (hydroxypropylcellulose) (HPC) 106 % of control

CCCCC(NC(=O)C(F)(F)F)C(=O)O (stereo not given)
inactive: dose: 100.0 mg/kg/injection, schedule: Q01DX009 (ip), vehicle: carboxymethylcellulose (CMC) 105 % of control | dose: 200.0 mg/kg/injection, schedule: Q01DX009 (ip), vehicle: carboxymethylcellulose (CMC) 96 % of control

CCC1=C(CC2NCCc3ccccc32)CC2c3cc(OC)c(OC)cc3CCN2C1 (stereo not given)
inactive: dose: 4.0 mg/kg/injection, schedule: Q04DX003 (ip), vehicle: water 103 % of control | dose: 8.0 mg/kg/injection, schedule: Q04DX003 (ip), vehicle: water 103 % of control | dose: 16.0 mg/kg/injection, schedule: Q04DX003 (ip), vehicle: water 102 % of control | dose: 32.0 mg/kg/injection, schedule: Q04DX003 (ip), vehicle: water 102 % of control | dose: 64.0 mg/kg/injection, schedule: Q04DX003 (ip), vehicle: water 102 % of control | dose: 75.0 mg/kg/injection, schedule: Q01DX001 (ip), vehicle: saline 95 % of control and 103 % of control | dose: 150.0 mg/kg/injection, schedule: Q01DX001 (ip), vehicle: saline 100 % of control and 103 % of control | dose: 300.0 mg/kg/injection, schedule: Q01DX001 (ip), vehicle: saline 100 % of control
